Reference: patent US20170334899A1, “AMINO-SUBSTITUTED ISOTHIAZOLES” (Bayer Pharma Aktiengesellschaft, priority 2014, published 2017)

Legend:
[1] = test system: human cervical tumor cell line HeLa (ATCC CCL-2); experiment: SAC-Formation - Paclitaxel-Induced Assay; type: cell-based; settings: 24 h, HeLa cells, paclitaxel 0.05 μM, test range 0.005 μM-20 μM, read-out: IC50 [mol/l] SAC-Formation - Paclitaxel-Induced Assay
Summary of the method: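 Read-out is high-content imaging of anti-phospho-H3 Ser10 (mitosis) and Hoechst 33342 (DNA, cell number), with decreased mitotic fraction marking checkpoint breakthrough. Compounds (0.005–20 μM) and 0.05 μM paclitaxel co-added to overnight-plated HeLa for 24 h at 37° C; four-parameter Hill fit.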

[2] = test system: human cervical tumor cell line HeLa (ATCC CCL-2); experiment: SAC-Formation - Nocodazole-Induced Assay; type: cell-based; settings: 24 h, HeLa cells, nocodazole 0.1 μg/ml together with test compound, decrease of mitotic cells (phospho-histone H3 Ser10)
Summary of the method: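 Loss of phospho-histone H3 Ser10-positive cells, counted against Hoechst-stained nuclei by high-content imaging, marked mitotic breakthrough. Compounds (0.005–20 μM, 0.5% DMSO) were co-dosed with 0.1 μg/ml nocodazole onto HeLa cells for 24 h at 37 °C. Curves were fitted with a four-parameter Hill equation.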

Structure (SMILES) | IC50 ([1]; Homo sapiens, HeLa) [nM] | IC50 ([2]; Homo sapiens, HeLa) [nM] | IC50 [1] [nM] | IC50 [2] [nM]
Cc1nsc(Nc2cnc3ccccc3n2)c1C(=O)Nc1cccc(C(=O)N2CCCC2)c1 [Example 113, 3-Methyl-N-[3-(pyrrolidin-1-ylcarbonyl)phenyl]-5-(quinoxalin-2-ylamino)-1,2-thiazole-4-carboxamide] | 1700 | 210 |  | 
Cc1nsc(Nc2cnc3ccccc3n2)c1C(=O)Nc1cccc(C(=O)N2CCN(C)CC2)c1 [Example 102, 3-Methyl-N-{3-[(4-methylpiperazin-1-yl)carbonyl]phenyl}-5-(quinoxalin-2-ylamino)-1,2-thiazole-4-carboxamide] | 7500 | 4900 |  | 
Cc1nsc(Nc2cnc(C(F)(F)F)cn2)c1C(=O)Nc1ccc(OC2CCN(CCC(F)(F)F)CC2)nc1 [Example 10, 3-Methyl-5-{[5-(trifluoromethyl)pyrazin-2-yl]amino}-N-(6-{[1-(3,3,3-trifluoropropyl)-piperidin-4-yl]oxy}pyridin-3-yl)-1,2-thiazole-4-carboxamide] |  |  | 340 | 260
Cc1nsc(Nc2ccc(C#N)cn2)c1C(=O)Nc1ccc(NC2CCCN(C(=O)OC(C)(C)C)C2)nc1 (stereo not shown) [Example 171, tert-butyt 3-({5-[({5-[(5-cyanopyridin-2-yl)amino]-3-methyl-1,2-thiazol-4-yl}carbonyl)amino]pyridin-2-yl}amino)piperidine-1-carboxylate] | 4000 | 71 |  | 
Cc1nsc(Nc2cnc3ccccc3n2)c1C(=O)Nc1ccc(C(=O)N2CCCN(CC(F)(F)F)CC2)cc1 [Example 159] | 10000 | 1500 |  | 
Cc1nsc(Nc2cnc(C(F)(F)F)cn2)c1C(=O)Nc1ccc(O[C@@H]2CCN(CCC(F)(F)F)C2)nc1 [Example 423, 3-Methyl-5-{[5-(trifluoromethyl)pyrazin-2-yl]amino}-N-(6-{[(3R)-1-(3,3,3-trifluoropropyl)pyrrolidin-3-yl]oxy}pyridin-3-yl)-1,2-thiazole-4-carboxamide] |  |  | 140 | 47
COC(=O)CNC(=O)c1cccc(NC(=O)c2c(C)nsc2Nc2cnc3ccccc3n2)c1 [Example 100, Methyl N-[3-({[3-methyl-5-(quinoxalin-2-ylamino)-1,2-thiazol-4-yl]carbonyl}amino)-benzoyl]glycinate] | 20000 | 1500 |  | 
Cc1nsc(Nc2cnc3ccccc3n2)c1C(=O)Nc1ccc(NC2CC2)nc1 [Example 172, N-[6-(cyclopropylamino)pyridin-3-yl]-3-methyl-5-(quinoxalin-2-ylamino)-1,2-thiazole-4-carboxamide] | 2300 | 3500 |  | 
Cc1nsc(Nc2cnc3ccccc3n2)c1C(=O)Nc1cccc(C(=O)NCC(=O)O)c1 [Example 99, N-[3-({[3-Methyl-5-(quinoxalin-2-ylamino)-1,2-thiazol-4-yl]carbonyl}amino)benzoy]-glycine] | 20000 | 1100 |  | 
Cc1nsc(Nc2cnc3ccccc3n2)c1C(=O)Nc1ccc(C(=O)NCCN2CCCC(F)(F)C2)cc1 [Example 156, N-(4-{[2-(3,3-difluoropiperidin-1-yl)ethyl]carbamoyl}phenyl)-3-methyl-5-(quinoxalin-2-ylamino)-1,2-thiazole-4-carboxamide] | 4000 | 2100 |  | 
Cc1nsc(Nc2cnc3ccccc3n2)c1C(=O)Nc1cccc(C(=O)N2CCNCC2)c1 [Example 101, 3-Methyl-N-[3-(piperazin-1-ylcarbonyl)phenyl]-5-(quinoxalin-2-ylamino)-1,2-thiazole-4-carboxamide] | 20000 | 1800 |  | 

Continued by falling IC50 ([1]; Homo sapiens, HeLa), values first:

IC50 ([1]; Homo sapiens, HeLa) [nM] | IC50 ([2]; Homo sapiens, HeLa) [nM] | IC50 [1] [nM] | IC50 [2] [nM] | Structure (SMILES)
1500 | 190 |  |  | Cc1nsc(Nc2cnc3ccccc3n2)c1C(=O)Nc1ccc(Oc2cccc(C(F)(F)F)c2)nc1 [Example 117, 3-Methyl-5-(quinoxalin-2-ylamino)-N-{6-[3-(trifluoromethyl)phenoxy]pyridin-3-yl}-1,2-thiazole-4-carboxamide]
1100 | 2300 |  |  | Cc1nsc(Nc2ccc(C#N)cn2)c1C(=O)Nc1ccc(N[C@@H](C)C(=O)OC(C)(C)C)nc1 [Example 170, tert-butyl N-{5-[({5-[(5-cyanopyridin-2-yl)amino]-3-methyl-1,2-thiazol-4-yl}carbonyl)amino]pyridin-2-yl}alaninate]
900 | 1700 |  |  | Cc1nsc(Nc2cnc3ccccc3n2)c1C(=O)Nc1ccc(C(=O)N2CCN(CC(F)F)CC2)cc1 [Example 157, N-(4-{[4-(2,2-difluoroethyl)piperazin-1-yl]carbonyl}phenyl)-3-methyl-5-(quinoxalin-2-ylamino)-1,2-thiazole-4-carboxamide]
370 | 65 |  |  | Cc1nsc(Nc2cnc(C(F)(F)F)cn2)c1C(=O)Nc1ccc(C(=O)NCCN2CCCC(F)(F)C2)cc1 [Example 153, N-(4-{[2-(3,3-difluoropiperidin-1-yl)ethyl]carbamoyl}phenyl)-3-methyl-5-{[5-(trifluoromethyl)pyrazin-2-yl]amino}-1,2-thiazole-4-carboxamide]
250 | 160 |  |  | Cc1nsc(Nc2ccc(C#N)cn2)c1C(=O)Nc1cccc(S(C)(=O)=O)c1 [Example 150, 5-[(5-cyanopyridin-2-yl)amino]-3-methyl-N-[3-(methylsulfonyl)phenyl]-1,2-thiazole-4-carboxamide]
150 | 35 |  |  | Cc1nsc(Nc2cncc(C(F)(F)F)n2)c1C(=O)Nc1ccc(OCC2CCN(C(=O)OC(C)(C)C)C2)nc1 (stereo not shown) [Example 110, tert-Butyl 3-{[(5-{[(3-methyl-5-{[6-(trifluoromethyl)pyrazin-2-yl]amino}-1,2-thiazol-4-yl)carbonyl]amino}pyridin-2-yl)oxy]methyl}pyrrolidine-1-carboxylate]
120 | 36 |  |  | CCCCN1CC[C@@H](Oc2ccc(NC(=O)c3c(C)nsc3Nc3cnc(C(F)(F)F)cn3)cn2)[C@@H](F)C1 [Example 141, N-(6-{[(3S,4R)-1-butyl-3-fluoropiperidin-4-yl]oxy}pyridin-3-yl)-3-methyl-5-{[5-(trifluoromethyl)pyrazin-2-yl]amino}-1,2-thiazole-4-carboxamide]
110 | 60 |  |  | CCCN1CC[C@@H](Oc2ccc(NC(=O)c3c(C)nsc3Nc3cnc(C(F)(F)F)cn3)cn2)[C@@H](F)C1 [Example 140, N-(6-{[(3S,4R)-3-fluoro-1-propylpiperidin-4-yl]oxy}pyridin-3-yl)-3-methyl-5-{[5-(trifluoromethyl)pyrazin-2-yl]amino}-1,2-thiazole-4-carboxamide]
83 | 53 |  |  | Cc1nsc(Nc2cnc(C(F)(F)F)cn2)c1C(=O)Nc1ccc(OC[C@@H]2CCN(CC(F)F)C2)nc1 [Example 127, N-(6-{[(3R)-1-(2,2-difluoroethyl)pyrrolidin-3-yl]methoxy}pyridin-3-yl)-3-methyl-5-{[5-(trifluoromethyl)pyrazin-2-yl]amino}-1,2-thiazole-4-carboxamide]
53 | 110 |  |  | Cc1nsc(Nc2ccc(C#N)cn2)c1C(=O)Nc1ccc(Oc2cccc(C(F)(F)F)c2)nc1 [Example 118, 5-[(5-Cyanopyridin-2-yl)amino]-3-methyl-N-{6-[3-(trifluoromethyl)phenoxy]pyridin-3-yl}-1,2-thiazole-4-carboxamide]
43 | 340 |  |  | Cc1nsc(Nc2cnc(C(F)(F)F)cn2)c1C(=O)Nc1ccc(OCC2CCN(CCF)C2)nc1 (stereo not shown) [Example 121, N-(6-{[1-(2-fluoroethyl)pyrrolidin-3-yl]methoxy}pyridin-3-yl)-3-methyl-5-{[5-(trifluoromethyl)pyrazin-2-yl]amino}-1,2-thiazole-4-carboxamide]
39 | 61 |  |  | Cc1nsc(Nc2cnc(C(F)(F)F)cn2)c1C(=O)Nc1ccc(OC2CCN(CC(F)(F)F)CC2)c(F)c1 [Example 163, N-(3-fluoro-4-{[1-(2,2,2-trifluoroethyl)piperidin-4-yl]oxy}phenyl)-3-methyl-5-{[5-(trifluoromethyl)pyrazin-2-yl]amino}-1,2-thiazole-4-carboxamide]
37 | 13 |  |  | Cc1nsc(Nc2cnc(C(F)(F)F)cn2)c1C(=O)Nc1ccc(O[C@H]2CCN(CC(F)(F)F)C[C@H]2F)nc1 [Example 145, N-(6-{[(3R,4S)-3-fluoro-1-(2,2,2-trifluoroethyl)piperidin-4-yl]oxy}pyridin-3-yl)-3-methyl-5-{[5-(trifluoromethyl)pyrazin-2-yl]amino}-1,2-thiazole-4-carboxamide]
37 | 7 |  |  | Cc1nsc(Nc2cnc(C(F)(F)F)cn2)c1C(=O)Nc1ccc(OCC2CCN(C(=O)OC(C)(C)C)C2)nc1 (stereo not shown) [Example 109, tert-Butyl 3-{[(5-{[(3-methyl-5-{[5-(trifluoromethyl)pyrazin-2-yl]amino}-1,2-thiazol-4-yl)carbonyl]amino}pyridin-2-yl)oxy]methyl}pyrrolidine-1-carboxylate]
7.9 | 3.8 |  |  | Cc1nsc(Nc2ccc(C#N)cn2)c1C(=O)Nc1ccc(C(=O)OC(C)(C)C)cc1 [Example 98, tert-Butyl 4-[({5-[(5-cyanopyridin-2-yl)amino]-3-methyl-1,2-thiazol-4-yl}carbonyl)-amino]benzoate]
